Experimental data reported in paper PMC11813358 (Journal of Microbiology and Biotechnology, 2024).
Numbering of substitutions follows the chain as printed. Several values for one entry are separate records, joined by “and”; a condition that tells them apart may be missing. Identical values can stand only once. Entries after “also recorded” stand apart in the source; their conditions may differ. Blank lines part the entries; values can stand above or below the molecule they belong to.

Columns and labels:
Assay type in all cases: cell-based
[1] = target: T1, double mutant (L260A + V264A) 5-HT3A receptor (Homo sapiens, UniProt P46098, L282A/V286A); assay: Two-electrode voltage clamp of I5-HT in oocytes expressing double mutant (L260A/V264A) 5-HT3A receptor; conditions: for Inhibitory effect of MDL 72222 on double mutant: 0.5 μM MDL 72222
T1 construct: expressed in transfected cells; host or cells: Xenopus laevis oocytes injected with cRNA
T1 sequence (P46098 24-478 L282A/V286A): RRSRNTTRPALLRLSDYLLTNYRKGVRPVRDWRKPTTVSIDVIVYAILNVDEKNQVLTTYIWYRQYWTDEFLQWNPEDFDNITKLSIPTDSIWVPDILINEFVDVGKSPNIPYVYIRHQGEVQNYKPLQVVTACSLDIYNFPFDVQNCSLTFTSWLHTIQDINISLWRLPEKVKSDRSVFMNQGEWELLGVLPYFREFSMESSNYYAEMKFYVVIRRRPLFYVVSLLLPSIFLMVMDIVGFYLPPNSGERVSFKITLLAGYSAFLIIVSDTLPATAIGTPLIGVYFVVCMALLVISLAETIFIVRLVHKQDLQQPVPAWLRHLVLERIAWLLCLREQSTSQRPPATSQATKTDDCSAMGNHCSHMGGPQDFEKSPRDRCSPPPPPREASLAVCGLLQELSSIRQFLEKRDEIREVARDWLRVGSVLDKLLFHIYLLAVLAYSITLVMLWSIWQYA
Protocol: (§1) The experimental procedure follows the approach outlined in the previous study, but is summarized briefly as follows. The plasmid containing the cDNAs for the 5-HT3A receptor was digested with Xho I restriction enzymes to linearize the cDNAs, which were then transcribed into cRNA using the Ambion mMESSAGE mMACHINE transcription kit with T7 RNA polymerase (Thermo Fisher Scientific Inc., USA). After transcription, the cRNA was dissolved in nuclease-free water, and its size and concentration were assessed via electrophoresis and spectrophotometry (DeNovix Inc., USA). The cRNA was aliquoted to a concentration of 1 μg/μl for storage at -80°C. Specific mutations were introduced into the 5-HT3A receptor using the QuickChange site-directed mutagenesis kit (Agilent Technologies Inc., USA) and PCR. The correctness of the mutations was verified by sequencing the final mutated DNA (CosmoGenetech Co., Republic of Korea).
(§2) The study utilized female Xenopus laevis frogs that were kept according to institutional protocols (CNU IACUC-YB-2016-07, July 2016), requiring a stable temperature of around 20°C and a 12-h light-dark cycle. Frog care adhered to standards from the Korean Xenopus Resource Center for Research (KXRCR000001). Anesthesia was induced by placing the frogs on ice, after which a small abdominal incision was made to extract oocytes, which were isolated using OR2 buffer (containing 82.5 mM NaCl, 2 mM KCl, 1 mM MgCl2, and 5 mM HEPES, pH 7.5) with collagenase. After rinsing with ND96 buffer (which includes 96 mM NaCl, 2 mM KCl, 1 mM MgCl2, 1.8 mM CaCl2, and 5 mM HEPES, pH 7.5), stage V-VI oocytes were selected and incubated at 18°C with ND96 incubation buffer containing sodium pyruvate and gentamicin for 2 to 3 days. Finally, 40 ng of 5HT3A cRNA was injected into each oocyte using a Nanoject automatic oocyte injector.
(§3) Two to three days post-RNA injection, the expression of the 5-HT3A protein in the oocytes was verified using a two-electrode oocyte clamp (OC-725C, Warner Instruments, LLC, USA). An agar bridge facilitated electrical connections, while ND96 buffer flowed continuously into the net chamber at 2 ml/min. Two glass microelectrodes filled with 3 M KCl (0.2 MΩ resistance) accessed the oocytes. To analyze the current-voltage relationship, voltages from −80 to +50 mV were applied, maintaining a holding potential of −80 mV. Current data were collected with a Digidata 1550 series device and analyzed using pCLAMP 10 software (Molecular Devices LLC, USA).
(§4) The Hill equation was used for graph fitting in OriginPro 7.0, as detailed below:
(§5) y = Vmin + (Vmax − Vmin) * [x]^n/([IC50]^n + [x]^n)
In this formula, Vmax and Vmin represent the highest and lowest current values, respectively. […]

[2] = target: T2, V264A mutant 5-HT3A receptor (Homo sapiens, UniProt P46098, V286A); assay: Two-electrode voltage clamp of I5-HT in oocytes expressing V264A mutant 5-HT3A receptor; conditions: 100 μM 5-HT
T2 construct: expressed in transfected cells; host or cells: Xenopus laevis oocytes injected with cRNA
T2 sequence (P46098 24-478 V286A): T1 sequence (P46098 24-478 L282A/V286A) with A259L
Protocol: as §1
as §2, with “Finally, 40 ng of 5HT3A cRNA was injected into each oocyte using a Nanoject automatic oocyte injector.” left out
(§6) Two to three days post-RNA injection, the expression of the 5-HT3A protein in the oocytes was verified using a two-electrode oocyte clamp (OC-725C, Warner Instruments, LLC, USA). […] Current data were collected with a Digidata 1550 series device and analyzed using pCLAMP 10 software (Molecular Devices LLC, USA). […]

[3] = target: T3, Human 5-hydroxytryptamine receptor 3A subtype (wild-type 5-HT3A receptor) (Homo sapiens, UniProt P46098); assay: Two-electrode voltage clamp of 5-HT-induced inward current (I5-HT) in Xenopus oocytes expressing wild-type 5-HT3A receptor; conditions: for Imax of 5-HT concentration-response: normalized to maximum 5-HT current
T3 construct: host or cells: Xenopus laevis oocytes injected with cRNA
T3 sequence (P46098 24-478): T1 sequence (P46098 24-478 L282A/V286A) with A259L, A263V
Protocol: as §1, §2, §3, §4, §5
In this formula, Vmax and Vmin represent the highest and lowest current values, respectively. […] The variable x signifies the concentration of these compounds, while n corresponds to the Hill coefficient.

[4] = target: T4, L260A mutant 5-HT3A receptor (Homo sapiens, UniProt P46098, L282A); assay: Two-electrode voltage clamp of I5-HT in oocytes expressing L260A mutant 5-HT3A receptor; conditions: 100 μM 5-HT
T4 construct: expressed in transfected cells; host or cells: Xenopus laevis oocytes injected with cRNA
T4 sequence (P46098 24-478 L282A): T1 sequence (P46098 24-478 L282A/V286A) with A263V
Protocol: as §1
as §2, with “Finally, 40 ng of 5HT3A cRNA was injected into each oocyte using a Nanoject automatic oocyte injector.” left out
as §6

[5] = −80 mV, unit not printed in Table 3, taken
[6] = 5-HT + 3 μM nicergoline, −80 mV
[7] = 5-HT + 30 μM nicergoline, −80 mV
[8] = wild type, co-treatment with 100 μM 5-HT, −80 mV

SMILES: CN1[C@@H]2CC[C@H]1C[C@@H](OC(=O)c1cc(Cl)cc(Cl)c1)C2 [MDL 72222]
Inhibitory effect of MDL 72222 on double mutant ([1]; double mutant (L260A/V264A)): strongly inhibited
Inhibitory effect of MDL 72222 on double mutant ([1]; double mutant (L260A/V264A), listed as MDL72222): remained unaffected

Inhibitory effect of nicergoline on double mutant ([1]; 100 μM nicergoline, double mutant (L260A/V264A)): absent; also recorded: abolished
Maximum inhibition of I5-HT ([1]; L260A + V264A double mutant, 100 μM 5-HT, −80 mV): 2.7 ± 1.3%
nH [2]: 0.8 ± 0.2
Maximum inhibition of I5-HT ([2]; −80 mV): 24% and 24.1 ± 0.8%
IC50 [2, 5]: 54.7 ± 5 µM
5-HT current when 5-HT applied immediately following nicergoline, % of the initial (baseline) current ([3]; 30 μM nicergoline applied alone, then 100 μM 5-HT at 0 sec washout): 56.2 ± 10.9%
Imax of 5-HT concentration-response [3, 6]: 70.6 ± 2.9
nH of 5-HT concentration-response [3, 6]: 1.3 ± 0.4
Imax of 5-HT concentration-response [3, 7]: 45.8 ± 8.6
nH of 5-HT concentration-response [3, 7]: 1.2 ± 0.3
Mode of antagonism versus 5-HT ([3]; 5-HT concentration-response in presence of 3 and 30 μM nicergoline): non-competitive
IC50 ([3]; wild type, co-treatment with 100 μM 5-HT, holding potential −80 mV): 7.7 ± 0.9 µM
Hill coefficient (nH) of inhibition [3, 8]: 1.4 ± 0.2
Maximum inhibition of I5-HT [3, 8]: 91.1 ± 3.4%
Maximum inhibition of I5-HT ([3]; wild type, co-treatment with 100 μM 5-HT, −80 mV, listed as Nicergoline): approximately 91%
nH [4]: 1.2 ± 0.3
Maximum inhibition of I5-HT ([4]; −80 mV): 51% and 51.9 ± 2.9%
IC50 [4, 5]: 57.4 ± 5.6 µM
SMILES: CO[C@]12C[C@@H](COC(=O)c3cncc(Br)c3)CN(C)[C@@H]1Cc1cn(C)c3cccc2c13 [nicergoline]

Imax of 5-HT concentration-response ([3]; Control, 5-HT alone, −80 mV): 101.5 ± 4.6
nH of 5-HT concentration-response ([3]; Control, 5-HT alone, −80 mV): 1.2 ± 0.1
SMILES: NCCc1c[nH]c2ccc(O)cc12 [serotonin, 5-hydroxytryptamine]
